From patent US20230301890A1, “COMPOSITIONS COMPRISING UROLITHINS” (Amazentis SA, priority 2022, published 2023)

Experiments:
[1] = system: Normal Adult Human Epidermal Keratinocytes (NHEK-Ad); assay: RNA sequencing gene expression in human primary keratinocytes; type: cell-based; details: for expression of autophagy/mitophagy and mitochondrial function genes / expression of MMP1: vs DMSO/vehicle
Description: Study was conducted on Normal Adult Human Dermal Fibroblasts (NHDF-Ad) from two pooled donors (Catalog #: CC-2511) and Normal Adult Human Epidermal Keratinocytes (NHEK-Ad) from two pooled donors (Catalog #: 00192627, Lonza). The primary skin cells were amplified in flask and seeded in 12-well cell culture plates, filled with 1 mL of culture medium and then incubated at 37° C. with 5% CO2 and saturated hygrometry. The basic culture medium of human dermal fibroblasts was composed of FBM™ medium (Fibroblast Growth Basal Medium) supplemented with insulin 0.1%, hFGF-B 0.1%, GA-1000 0.1% and FBS 2%. The basic culture medium of human keratinocytes was composed of KBM™ Gold medium (Keratinocytes Basal Medium) supplemented with Hydrocortisone, Transferrin, Epinephrine, Gentamycin, Amphotericin B, BPE, hEGF and Insulin. Primary cells were treated at confluency (approximatively 250000 cells per well) with 0.1% DMSO (control), 2.5 μM and 10 μM of Urolithin A for 24 h, and harvested for RNA sequencing and expression profiling using the NGS platform.

[2] = system: 3D reconstituted human epidermis (RHE); assay: Gene expression in 3D reconstituted human epidermis after daily cream application; type: cell-based; details: UA 1% moisturizing cream daily for 3 days, vs Vehicle
From the text: Finally, we employed a model of 3D reconstituted human epidermis (RHE) applied daily with the UA 1% moisturizing cream for 3 days.

O=c1oc2cc(O)ccc2c2ccc(O)cc12 [Urolithin A]
expression of genes encoding collagen degradation enzymes (MMPs, ADAMs) ([1]; 2.5 uM or 10 uM, 24 h, vs DMSO): reduces expression
expression of genes encoding proinflammatory cytokines (IL1A, IL1B) ([1]; 2.5 uM or 10 uM, 24 h, vs DMSO): reduces expression
expression of autophagy/mitophagy and mitochondrial function genes ([1]; 2.5 uM or 10 uM, 24 h): increases the expression
expression of autophagy/mitophagy and mitochondrial function genes ([1]; 2.5 uM or 10 uM, 24 h, listed as UA): upregulated
expression of mitophagy marker PINK1 ([1]; 2.5 uM or 10 uM, vs DMSO): increased
expression of MMP1 ([1]; 24 h): decreases
expression of MMP1 ([1]; 24 h, listed as UA): drastic downregulation
expression of MMP3 ([1]; 24 h, vs vehicle): drastic downregulation
MMP1 and MMP3 gene expression [2]: No change
mitophagy and autophagy genes [2]: early activation
